Results as given in patent US6423689B1, “Peptidyl calcium channel blockers” (Warner-Lambert Company, priority 1997, dated 2002).

Target: T1, N-type Ca2+ channels in IMR-32 cells (Homo sapiens, UniProt Q00975)
T1 construct: host or cells: IMR-32 cells, differentiated with dibutyryl cAMP and bromodeoxyuridine
Experiment: Inhibition of N-type calcium flux in IMR-32 cells (Indo-1 fluorescence, nitrendipine present)
Format: cell-based
Settings: for inhibition at 1 µM / inhibition at 10 µM: IMR-32; for IC50: IMR-32 cells, 5 μM nitrendipine, K+ depolarization
Summary of the method: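 With L-type flux blocked by 5 μM nitrendipine, N-type Ca2+ entry was read as the Indo-1 emission ratio (400/490 nm, excitation 350 nm) at 30° C after KCl depolarization.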

T1 sequence (Q00975 whole entry): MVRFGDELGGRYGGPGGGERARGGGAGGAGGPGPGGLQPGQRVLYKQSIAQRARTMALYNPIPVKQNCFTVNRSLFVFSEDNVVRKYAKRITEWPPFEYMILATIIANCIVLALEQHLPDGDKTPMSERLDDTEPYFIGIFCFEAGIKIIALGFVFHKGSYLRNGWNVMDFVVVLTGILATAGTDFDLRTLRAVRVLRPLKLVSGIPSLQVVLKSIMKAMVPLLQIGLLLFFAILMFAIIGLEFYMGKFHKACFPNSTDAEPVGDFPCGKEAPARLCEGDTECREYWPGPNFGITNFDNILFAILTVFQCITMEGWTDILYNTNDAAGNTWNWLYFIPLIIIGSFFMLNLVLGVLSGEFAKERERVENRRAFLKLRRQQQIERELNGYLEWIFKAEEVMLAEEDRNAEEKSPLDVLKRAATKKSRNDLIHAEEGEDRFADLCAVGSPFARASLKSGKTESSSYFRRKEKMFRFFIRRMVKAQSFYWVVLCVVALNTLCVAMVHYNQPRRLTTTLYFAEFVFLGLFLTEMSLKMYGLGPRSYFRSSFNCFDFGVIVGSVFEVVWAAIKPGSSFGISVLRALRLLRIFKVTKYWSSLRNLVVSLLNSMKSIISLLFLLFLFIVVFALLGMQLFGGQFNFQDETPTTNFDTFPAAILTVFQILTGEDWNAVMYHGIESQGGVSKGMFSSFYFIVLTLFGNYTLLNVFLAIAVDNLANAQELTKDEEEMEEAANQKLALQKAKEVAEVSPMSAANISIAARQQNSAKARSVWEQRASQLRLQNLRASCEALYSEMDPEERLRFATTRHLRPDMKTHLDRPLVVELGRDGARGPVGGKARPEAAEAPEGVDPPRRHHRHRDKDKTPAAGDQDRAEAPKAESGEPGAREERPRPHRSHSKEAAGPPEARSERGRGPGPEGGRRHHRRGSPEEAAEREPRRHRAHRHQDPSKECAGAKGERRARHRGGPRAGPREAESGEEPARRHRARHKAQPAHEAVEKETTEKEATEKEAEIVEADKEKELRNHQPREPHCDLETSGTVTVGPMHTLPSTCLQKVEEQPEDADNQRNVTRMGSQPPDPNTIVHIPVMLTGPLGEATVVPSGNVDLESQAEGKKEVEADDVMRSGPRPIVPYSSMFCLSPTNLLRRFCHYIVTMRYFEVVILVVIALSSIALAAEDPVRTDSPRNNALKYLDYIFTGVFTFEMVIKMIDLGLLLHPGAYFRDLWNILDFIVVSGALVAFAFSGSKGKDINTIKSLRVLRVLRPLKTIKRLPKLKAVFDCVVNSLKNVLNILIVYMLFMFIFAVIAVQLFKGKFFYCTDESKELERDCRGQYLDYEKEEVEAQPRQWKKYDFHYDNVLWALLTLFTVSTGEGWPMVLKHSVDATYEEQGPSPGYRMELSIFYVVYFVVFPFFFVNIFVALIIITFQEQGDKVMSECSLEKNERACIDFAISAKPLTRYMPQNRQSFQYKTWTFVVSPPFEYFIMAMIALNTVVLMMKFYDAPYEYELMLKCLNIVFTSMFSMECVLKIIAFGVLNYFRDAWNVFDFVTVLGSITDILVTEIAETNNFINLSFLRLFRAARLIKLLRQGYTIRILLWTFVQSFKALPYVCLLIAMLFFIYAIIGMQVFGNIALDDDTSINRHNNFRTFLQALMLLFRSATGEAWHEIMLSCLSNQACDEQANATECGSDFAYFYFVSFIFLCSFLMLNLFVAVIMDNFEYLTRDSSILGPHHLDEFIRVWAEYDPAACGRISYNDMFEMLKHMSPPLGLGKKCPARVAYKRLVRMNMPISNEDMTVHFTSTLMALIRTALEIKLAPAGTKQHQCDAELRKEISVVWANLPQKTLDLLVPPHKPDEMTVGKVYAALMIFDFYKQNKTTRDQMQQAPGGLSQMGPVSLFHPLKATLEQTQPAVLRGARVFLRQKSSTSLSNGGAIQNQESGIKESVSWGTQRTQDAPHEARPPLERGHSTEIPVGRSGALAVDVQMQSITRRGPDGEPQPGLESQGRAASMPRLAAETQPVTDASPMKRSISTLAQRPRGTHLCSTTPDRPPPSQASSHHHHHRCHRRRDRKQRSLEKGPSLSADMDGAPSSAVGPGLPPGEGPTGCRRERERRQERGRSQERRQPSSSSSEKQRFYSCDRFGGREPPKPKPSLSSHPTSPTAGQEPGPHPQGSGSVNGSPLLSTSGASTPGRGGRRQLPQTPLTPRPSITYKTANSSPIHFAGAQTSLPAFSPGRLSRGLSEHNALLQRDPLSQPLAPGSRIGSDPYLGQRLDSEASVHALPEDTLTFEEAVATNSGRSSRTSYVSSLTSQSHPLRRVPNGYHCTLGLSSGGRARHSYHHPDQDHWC
T1 sequence (P54289 25-956 partner limits assumed): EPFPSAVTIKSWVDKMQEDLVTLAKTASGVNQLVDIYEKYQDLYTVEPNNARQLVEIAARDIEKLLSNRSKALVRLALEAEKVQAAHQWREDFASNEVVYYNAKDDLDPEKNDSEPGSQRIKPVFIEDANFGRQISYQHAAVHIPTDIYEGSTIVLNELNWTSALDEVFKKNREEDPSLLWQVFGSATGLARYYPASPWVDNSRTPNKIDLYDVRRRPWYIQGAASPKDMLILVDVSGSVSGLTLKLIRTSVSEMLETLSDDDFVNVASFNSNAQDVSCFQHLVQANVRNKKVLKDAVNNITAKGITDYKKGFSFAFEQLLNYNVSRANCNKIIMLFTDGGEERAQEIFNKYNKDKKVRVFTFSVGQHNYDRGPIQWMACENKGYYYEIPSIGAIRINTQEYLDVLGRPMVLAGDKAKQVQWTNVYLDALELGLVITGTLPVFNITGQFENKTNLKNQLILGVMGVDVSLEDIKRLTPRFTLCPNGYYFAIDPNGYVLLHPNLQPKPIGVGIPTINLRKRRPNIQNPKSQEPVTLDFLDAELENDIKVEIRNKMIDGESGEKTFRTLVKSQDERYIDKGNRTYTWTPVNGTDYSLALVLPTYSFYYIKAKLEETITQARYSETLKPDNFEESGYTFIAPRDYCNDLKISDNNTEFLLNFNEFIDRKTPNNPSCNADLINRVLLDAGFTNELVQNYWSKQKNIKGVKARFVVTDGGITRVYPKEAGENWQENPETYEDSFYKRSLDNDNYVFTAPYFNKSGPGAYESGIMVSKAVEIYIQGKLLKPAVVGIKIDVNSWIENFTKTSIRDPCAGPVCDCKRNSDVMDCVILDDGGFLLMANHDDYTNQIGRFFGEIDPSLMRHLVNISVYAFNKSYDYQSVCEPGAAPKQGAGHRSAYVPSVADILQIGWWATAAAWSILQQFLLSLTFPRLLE
T1 sequence (P54289 957-1103 partner limits assumed): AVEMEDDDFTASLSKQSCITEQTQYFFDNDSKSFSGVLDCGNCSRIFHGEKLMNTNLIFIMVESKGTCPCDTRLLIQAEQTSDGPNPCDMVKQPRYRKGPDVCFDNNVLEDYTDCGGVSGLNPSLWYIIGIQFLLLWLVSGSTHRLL
T1 sequence (P54284 whole entry partner): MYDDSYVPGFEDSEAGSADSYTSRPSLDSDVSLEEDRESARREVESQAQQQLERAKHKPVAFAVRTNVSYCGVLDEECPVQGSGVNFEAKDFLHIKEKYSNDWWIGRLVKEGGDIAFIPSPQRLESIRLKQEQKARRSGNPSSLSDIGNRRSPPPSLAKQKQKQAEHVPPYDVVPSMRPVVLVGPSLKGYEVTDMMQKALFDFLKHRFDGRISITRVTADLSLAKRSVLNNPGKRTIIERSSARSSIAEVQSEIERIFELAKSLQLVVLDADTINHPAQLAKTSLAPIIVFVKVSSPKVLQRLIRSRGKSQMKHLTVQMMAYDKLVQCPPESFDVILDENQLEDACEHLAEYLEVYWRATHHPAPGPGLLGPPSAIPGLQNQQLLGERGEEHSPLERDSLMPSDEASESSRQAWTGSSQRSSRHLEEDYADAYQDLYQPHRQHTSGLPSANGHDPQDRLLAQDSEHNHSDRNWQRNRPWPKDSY

| SMILES | inhibition at 1 µM [%] | inhibition at 10 µM [%] | IC50 [nM] |
| --- | --- | --- | --- |
| CC(C)C[C@H](NC(=O)N1CCCCCC1)C(=O)N[C@@H](Cc1ccc(OCc2ccccc2)cc1)C(=O)NCc1ccncc1 [Example 178, [S-(R*,R*)]-Azepane-1-carboxylic acid (1-{2-(4-benzyloxy-phenyl)-1-[(pyridin-4-ylmethyl)carbamoyl]-ethylcarbamoyl}-3-methyl-butyl)-amide] |  |  | 3100 |
| CC(C)C[C@H](NC(=O)N1CCCCCC1)C(=O)N[C@@H](Cc1ccc(OCc2ccccc2)cc1)C(=O)NCCN1CCCC1 [Example 181, [S-(R*,R*)]-Azepane-1-carboxylic acid {1-[2-(4-benzyloxy-phenyl)-1-(2-pyrrolidin-1-ylethylcarbamoyl)-ethylcarbamoyl]3-methyl-butyl}-amide] |  |  | 2800 |
| CC(C)C[C@H](NC(=O)N1CCCCCC1)C(=O)NC(Cc1ccc(OCc2ccccc2)cc1)C(=O)N[C@@H]1CN2CCC1CC2 (stereo partly drawn) [Example 182, Azepane-1-carboxylic acid {(S)-1-[-1-[(S)-1-aza-bicyclo [2.2.2]-3-ylcarbamoyl]-2-(4-benzyloxy-phenyl)-ethylcarbamoyl]-3-methyl-butyl}-amide] |  |  | 7700 |
| CC(C)C[C@H](NC(=O)N1CCCCCC1)C(=O)N[C@@H](Cc1ccc(OCc2ccccc2)cc1)C(=O)NCCCN1CCN(C)CC1 [Example 187, [S-(R*,R*)]-Azepane-1-carboxylic acid (1-{2-(4-benzyloxy-phenyl)-1-[3-(4-methyl-piperazin-1-yl)-propylcarbamoyl]-ethylcarbamoyl}-3-methyl-butyl)-amide] | 20 | 77 | 4000 |
| CC(C)CC(NC(=O)N1CCCCCC1)C(=O)NC(Cc1ccc(OCc2ccccc2)cc1)C(=O)NCCC1CCCN1C (stereo not shown) [Example 193, Azepane-1-carboxylic acid (1-{2-(4-benzyloxy-phenyl)-1-[2-(1-methyl-pyrrolidin-2-yl)-ethylcarbamoyl]-ethylcarbamoyl}-3-methyl-butyl)-amide] |  |  | 3200 |
| CC(C)C[C@H](NC(=O)N1CCCCCC1)C(=O)N[C@@H](Cc1ccc(OCc2ccccc2)cc1)C(=O)N1CCc2ccccc2C1 [Example 201, [S-(R*,R*)]-Azepane-1-carboxylic acid {1-[1-(4-benzyloxy-benzyl)-2-(3,4-dihydro-1H-isoquinolin-2-yl)-2-oxo-ethylcarbamoyl]-3-methyl-butyl}-amide] | 29 | 81 | 2400 |
| CC(C)C[C@H](NC(=O)N1CCCCCC1)C(=O)N[C@@H](Cc1ccc(OCc2ccccc2)cc1)C(=O)N1CCN(CCO)CC1 [Example 202, [S-(R*,R*)]-Azepane-1-carboxylic acid (1-{1-(4-benzyloxy-benzyl)-2-[4-(2-hydroxy-ethyl)-piperazin-1-yl]-2-oxo-ethylcarbamoyl}-3-methyl-butyl)-amide] | 25 | 79 | 2800 |
| CC(C)C[C@H](NC(=O)N1CCCCCC1)C(=O)N[C@@H](Cc1ccc(OCc2ccccc2)cc1)C(=O)NC1CC(C)(C)NC(C)(C)C1 [Example 203, [S-(R*,R*)]-Azepane-1-carboxylic acid {1-[2-(4-benzyloxy-phenyl)-1-(2,2,6,6-tetramethyl-piperidin-4-ylcarbamoyl)-ethylcarbamoyl]-3-methyl-butyl}-amide] | 15 | 70 | 4700 |
| CC(=O)N1CCN(C(=O)[C@H](Cc2ccc(OCc3ccccc3)cc2)NC(=O)[C@H](CC(C)C)NC(=O)N2CCCCCC2)CC1 [Example 204, [S-(R*,R*)]-Azepane-1-carboxylic acid {1-[2-(4-acetyl-piperazin-1-yl)-1-(4-benzyloxy-benzyl)-2-oxo-ethylcarbamoyl]-3-methyl-butyl}-amide] | 13 | 66 | 5500 |
| CC(C)C[C@H](NC(=O)N1CCCCCC1)C(=O)N[C@@H](Cc1ccc(OCc2ccccc2)cc1)C(=O)NCC1CCCCC1 [Example 205, [S-(R*,R*)]-Azepane-1-carboxylic acid {1-[2-(4-benzyloxy-phenyl)-1-(cyclohexylmethyl-carbamoyl)-ethylcarbamoyl]-3-methyl-butyl}-amide] | 36 | 72 | 2400 |
| CC(C)C[C@H](NC(=O)N1CCCCCC1)C(=O)N[C@@H](Cc1ccc(OCc2ccccc2)cc1)C(=O)Nc1nccs1 [Example 207, [S-(R*,R*)]-Azepane-1-carboxylic acid {1-[2-(4-benzyloxy-phenyl)-1-(thiazol-2-ylcarbamoyl)-ethylcarbamoyl]-3-methyl-butyl}-amide] | 21 | 59 | 6200 |

Stronger by IC50, values ahead:

| inhibition at 1 µM [%] | inhibition at 10 µM [%] | IC50 [nM] | SMILES |
| --- | --- | --- | --- |
| 38 | 86 | 1400 | CC(C)C[C@H](NC(=O)N1CCCCCC1)C(=O)N[C@@H](Cc1ccc(OCc2ccccc2)cc1)C(=O)N1CCN(C)CC1 [Example 176, [S-(R*,R*)]-Azepane-1-carboxylic acid {1-[1-(4-benzyloxy-benzyl)-2-(4-methyl-piperazin-1-yl)-2-oxo-ethylcarbamoyl]-3-methyl-butyl}-amide] |
|  |  | 1400 | CC(C)C[C@H](NC(=O)N1CCCCCC1)C(=O)N[C@@H](Cc1ccc(OCc2ccccc2)cc1)C(=O)N1CCC[C@H]1CN1CCCC1 [Example 179, Azepane-1-carboxylic acid {(S)-1-[(S)-1-(4-benzyloxy-benzyl)-2-oxo-2-[(S)-2-pyrrolidin-1-ylmethyl-pyrrolidin-1-yl]-ethylcarbamoyl]-3-methyl-butyl}-amide] |
|  |  | 2300 | CC(C)C[C@H](NC(=O)N1CCCCCC1)C(=O)N[C@@H](Cc1ccc(OCc2ccccc2)cc1)C(=O)N1CCC(N2CCCCC2)CC1 [Example 185, [S-(R*,R*)]-Azepane-1-carboxylic acid {1-[1-(4-benzyloxy-benzyl)-2-[1,4′]bipiperidinyl-1′-yl-2-oxo-ethylcarbamoyl]-3-methyl-butyl}-amide] |
|  |  | 780 | CCN(CC)C(=O)C1CCCN(C(=O)C(Cc2ccc(OCc3ccccc3)cc2)NC(=O)C(CC(C)C)NC(=O)N2CCCCCC2)C1 (stereo not shown) [Example 188, Azepane-1-carboxylic acid {1-[1-(4-benzyloxy-benzyl)-2-(3-diethylcarbamoyl-piperidin-1-yl)-2-oxo-ethylcarbamoyl]-3-methyl-butyl}-amide] |
|  |  | 940 | CCN(CC)C(=O)C1CCCN(C(=O)C(Cc2ccc(OCc3ccccc3)cc2)NC(=O)C(CC(C)C)NC(=O)N2CCCCCC2)C1 (stereo not shown) [Example 189, Azepane-1-carboxylic acid {1-[1-(4-benzyloxy-benzyl)-2-(3-diethylcarbamoyl-piperidin-1-yl)-2-oxo-ethylcarbamoyl]-3-methyl-butyl}-amide] |
|  |  | 790 | CC(C)CC(NC(=O)N1CCCCCC1)C(=O)NC(Cc1ccc(OCc2ccccc2)cc1)C(=O)NCC(O)c1ccccc1 (stereo not shown) [Example 190, Azepane-1-carboxylic acid {1-[2-(4-benzyloxy-phenyl)-1-(2-hydroxy-2phenyl-ethylcarbamoyl)-ethylcarbamoyl]-3-methyl-butyl}-amide] |
|  |  | 580 | CCCN1CCCC(NC(=O)C(Cc2ccc(OCc3ccccc3)cc2)NC(=O)C(CC(C)C)NC(=O)N2CCCCCC2)C1 (stereo not shown) [Example 195, Azepane-1-carboxylic acid {1-[2-(4-benzyloxy-phenyl)-1-(1-propyl-piperidin-3-ylcarbamoyl)-ethylcarbamoyl]-3-methyl-butyl}-amide] |
|  |  | 700 | CC(C)CC(NC(=O)N1CCCCCC1)C(=O)NC(Cc1ccc(OCc2ccccc2)cc1)C(=O)NCCCN1CCCCC1C (stereo not shown) [Example 196, Azepane-1-carboxylic acid (1-{2-(4-benzyloxy-phenyl)-1-[3-(2-methyl-piperidin-1-yl)-propylcarbamoyl]-ethylcarbamoyl}-3-methyl-butyl)-amide] |
|  |  | 220 | CC(C)CC(NC(=O)N1CCCCCC1)C(=O)NC(Cc1ccc(OCc2ccccc2)cc1)C(=O)NC1CCCN(C)C1c1ccccc1 (stereo not shown) [Example 197, Azepane-1-carboxylic acid {1-[2-(4-benzyloxy-phenyl)-1-(1-methyl-2-phenyl-piperidin-3-ylcarbamoyl)-ethylcarbamoyl]-3-methyl-butyl}-amide] |
|  |  | 360 | CC(C)CC(NC(=O)N1CCCCCC1)C(=O)NC(Cc1ccc(OCc2ccccc2)cc1)C(=O)NC1CCCN(CC(C)C)C1 (stereo not shown) [Example 198, Azepane-1-carboxylic acid {1-[2-(4-benzyloxy-phenyl)-1-(1-isobutyl-piperidin-3-ylcarbamoyl)-ethylcarbamoyl]-3-methyl-butyl}-amide] |
| 36 | 86 | 1800 | CC(C)C[C@H](NC(=O)N1CCCCCC1)C(=O)N[C@@H](Cc1ccc(OCc2ccccc2)cc1)C(=O)N1CC(C)OC(C)C1 (stereo partly drawn) [Example 199, [S-(R*,R*)]-Azepane-1-carboxylic acid {1-[1-(4-benzyloxy-benzyl)-2-(2,6-dimethyl-morpholin-4-yl)-2-oxo-ethylcarbamoyl]-3-methyl-butyl}-amide] |
| 53 | 88 | 900 | CC(C)CC(NC(=O)N1CCCCCC1)C(=O)NC(Cc1ccc(OCc2ccccc2)cc1)C(=O)N1CCCC(C)C1 (stereo not shown) [Example 200, Azepane-1-carboxylic acid {1-[1-(4-benzyloxy-benzyl)-2-(3-methyl-piperidin-1-yl)-2-oxo-ethylcarbamoyl]-3-methyl-butyl}-amide] |
| 37 | 87 | 1700 | CC(C)C[C@H](NC(=O)N1CCCCCC1)C(=O)N[C@@H](Cc1ccc(OCc2ccccc2)cc1)C(=O)NCC1CC1 [Example 206, [S-(R*,R*)]-Azepane-1-carboxylic acid {1-[2-(4-benzyloxy-phenyl)-1-(cyclopropylmethyl-carbamoyl)-ethylcarbamoyl]-3-methyl-butyl}-amide] |
